Laboratory results as given in patent US9709555B2, “Compound for generating second harmonic of light, dye composition for generating second harmonic of light, and cell examination method” (KEIO UNIVERSITY, priority 2013, dated 2017).
≈ marks a conversion by molar mass, not a printed value. Entries after “also recorded” stand apart in the source; their conditions may differ.

Experiments:
[1] = Evaluation of solubility of dyes; format: physicochemical; details: for Dissolving in DMSO: DMSO added to a dye concentration of about 100 mM; for solubility: extracellular fluid (Artificial Cerebrospinal Fluid), aqueous buffer, kinetic from dmso stock; for solubility / Solubility (μM): solubility into a buffer, DMSO solution diluted 1000 times with extracellular fluid; for Solubility into a buffer: result in words
Procedure: Furthermore, using anionic, neutral, zwitter, and dicationic dyes shown in Table 1, solubility into a buffer, toxicity, and presence or absence of SHG and TPF signals when applied to cultured cells (CHO cells) were evaluated, respectively. Herein, the dyes #1 to 5 are dyes for generating a second harmonic of light outside of the range of the present invention, and the dyes #6 and 7 are dyes for generating a second harmonic of light within the range of the present invention.
DMSO (dimethyl sulfoxide) was added to the synthesized dye group (dyes #1 to #7) in Table 2 to have a concentration of a dye at about 100 mM and dissolving was attempted.
(§1) DMSO solutions of the dyes #1 to #3, #4, #5 and Ap3 were diluted 1000 times using an extracellular fluid (Artificial Cerebrospinal Fluid), and when all were assumed to be dissolved, the final concentration was set at about 100 μM.

CHO cells [2] = assay: Evaluation of cytotoxicity of dyes (cell forms before and after dyeing); format: cell-based, Chinese Hamster; details: cell form before and after dyeing, differential interference figure
Procedure: For evaluation of cytotoxicity due to a dye, cell forms before and after dyeing were confirmed from a differential interference figure using near-infrared light. Cytotoxicity was evaluated by particularly focusing on two points that 1) a cell having an extended structure due to interaction with an extracellular matrix loses its adhesion to thus separate from a cover glass and is rounded, and 2) a cell membrane having a smooth form becomes an inhomogeneous and uneven form, when the physiological condition of the cell deteriorates.

CHO cells [3] = assay: Evaluation of SHG and TPF signals of dyes applied to CHO cells; format: cell-based, Chinese Hamster; details: about 100 μM dye, pulse laser at 1,000 nm, qualitative comparison
Procedure: as §1
A CHO (Chinese Hamster Ovary) cell cultured on a cover glass was used as an observation subject, immersed into the above described dye solution to try dyeing a cell membrane, and directly observed under a microscope within several minutes.
A multiphoton laser microscope system (FV1000MPE manufactured by Olympus Corporation) on which an ultrashort femtosecond laser (MaitaiHP manufactured by Newport) was mounted was used for the observation, and SHG and two-photon fluorescence (Two-Photon Fluorescence: TPF) after irradiation by a pulse laser at 1,000 nm were observed under the same detection condition for each dye. Three images were obtained by changing fields of view per each dye, and signal intensities were qualitatively compared among the dyes. FIGS. 4 to 6 show images of Comparative Examples 4 to 6, and FIGS. 7 and 8 show images of Examples 2 and 3, respectively.

[4] = system: cultured human normal astrocyte; assay: SHG and TPF imaging of dye introduced into cultured human normal astrocyte; format: cell-based; details: 100 μM dye in buffer, introduced by pipette, 1,000 nm exciting light; for SHG signal: SHG at 500 nm
Procedure: A buffer containing 100 μM of FM4-64 was prepared and introduced into a cultured human normal astrocyte using a pipette. The dye that was introduced into the cell spreads throughout the entire cell over time.
For the measurement, a multiphoton microscope capable of SHG imaging and TPF imaging obtained by incorporating a tunable femtosecond mode synchronous infrared laser into a commercially available confocal laser scanning microscope was used as the light source. By irradiating with 1,000 nm of exciting light, an SHG signal light having a wavelength of 500 nm is generated from the dye in the same direction as the direction in which an infrared pulse laser travels. The signal can be detected in a photomultiplier tube provided on the laser light traveling direction side. A back scattered component of the TPF signal light is also observed by irradiating with the same exciting light.
SHG and TPF imaging was carried out in the same manner as Comparative Example 1 except for using Ap1 to Ap3 as dyes, and these cases were Comparative Examples 2 and 3 and Example 1, respectively.

nerve cell = details: dye introduced from the cell exterior, femtosecond laser; cited from earlier work

Compound	Dissolving in DMSO [1]	solubility [1]	Solubility into a buffer [1]	Solubility (μM) [1]	Toxicity (CHO cells [2])	SHG signal (CHO cells [3])	TPF signal (CHO cells [3])	TPF signal [4]	SHG signal [4]	Fluorescent (TPF) signal (nerve cell)	SHG signal (nerve cell)
CCCCCCN(CCCCCC)c1ccc(/N=N/c2ccc(S(=O)(=O)O)cc2)cc1 [#2]	easily dissolved	~100 µM (≈ 44.6 µg/mL)			High	Good	None				
CCCCN(CCCC)c1ccc(/N=N/c2ccc(S(=O)(=O)O)cc2)cc1 [#1]	easily dissolved	~100 µM (≈ 39 µg/mL)			High	Good	None				
CCCCCCN(CCCCCC)c1ccc(/N=N/c2ccc(C=O)cc2)cc1 [#4]	no dissolving			Insoluble		not obtained at all	not obtained at all				
CCN(CC)c1ccc(/C=C/C=C/C=C/c2cc[n+](CCC[N+](CC)(CC)CC)cc2)cc1 [FM4-64, reference compound]								observed	observed	detected	very strong
CCCCCCCCN(CCCCCCCC)c1ccc(/N=N/c2ccc(S(=O)(=O)O)cc2)cc1 [#3]	easily dissolved	~100 µM (≈ 50.2 µg/mL)			Some	Good	None				

Second part, led by results:

Dissolving in DMSO [1]	solubility [1]	Solubility into a buffer [1]	Solubility (μM) [1]	Compound	Toxicity (CHO cells [2])	SHG signal (CHO cells [3])	TPF signal (CHO cells [3])	TPF signal [4]	SHG signal [4]	Fluorescent (TPF) signal (nerve cell)	SHG signal (nerve cell)
poor solubility	< 100 µM	no problem		CCCCCCN(CCCCCC)c1ccc(/N=N/c2cc[n+](CCCS(=O)(=O)[O-])cc2)cc1 [#6, (E)-3-(4-((4-(dihexylamino)phenyl)diazenyl)pyridin-1-ium-1-yl)propane-1-sulfonate]	no problem; also recorded: Little	observed and Fine	not observed and None				
poor solubility	< 100 µM	no problem		CCCCCCCCN(CCCCCCCC)c1ccc(/N=N/c2cc[n+](CCCS(=O)(=O)[O-])cc2)cc1 [#7, (E)-3-(4-((4-(dioctylamino)phenyl)diazenyl)pyridin-1-ium-1-yl)propane-1-sulfonate]	no problem; also recorded: Little	observed and Fine	not observed and None				
no dissolving			Insoluble	CCCCCCN(CCCCCC)c1ccc(/N=N/c2ccc(C=C(C#N)C#N)cc2)cc1 [#5]		not obtained at all	not obtained at all				
	100 µM	no problem		CCCCCCN(CCCCCC)c1ccc(/N=N/c2cc[n+](CCC[N+](CC)(CC)CC)cc2)cc1 [Ap3]	no problem; also recorded: Little	observed and Good	not observed and None	not observed	can be observed		
